A word on the IC50: it is the concentration that inhibits the measured activity by half. The low end stands for higher potency, the high end for lower potency.

Where only a bound is given, the exact number is not on record here.

One assay concerns the target T1, EGFR_L858R/T790M/C797S (Homo sapiens, UniProt P00533, C797S/L858R/T790M).
T1 construct: Reaction Biology Corporation (contract assay provider)
Description: In vitro biochemical kinase assay (33P-ATP filter-binding, Reaction Biology). Here is the method:
The biochemical kinase assay was performed at Reaction Biology Corporation (www.reactionbiology.com, Malvern, Pa.) following procedures described in the reference (Anastassiadis, T, et al, Nature Biotechnology, 2011, 29, 1039). Base Reaction buffer includes 20 mM Hepes (pH 7.5), 10 mM MgCl2, 1 mM EGTA, 0.02% Brij35, 0.02 mg/ml BSA, 0.1 mM Na3VO4, 2 mM DTT and 1% DMSO. Required cofactors are added individually to each kinase reaction. Testing compounds were dissolved in 100% DMSO to specific concentration. The serial dilution was conducted by Integra Viaflo Assist in DMSO. Compounds in 100% DMSO are into the kinase reaction mixture by Acoustic technology (Echo550; nanoliter range), incubate for 20 min at room temperature, followed by ^33P-ATP and incubation for 2 hours at room temperature. Radioactivity was then detected by filter-binding method. Kinase activity data were expressed as the percent remaining kinase activity in test samples compared to vehicle (dimethyl sulfoxide) reactions. IC50 values and curve fits were obtained using Prism (GraphPad Software).

For assay [1], the target named is Ba/F3_EGFR_del19/T790M/C797S cell (Homo sapiens, UniProt P00533, T790M/C797S, cells depend on it, form not given). Description: BaF3 cell proliferation assay (CelltiterGlo, 72 hr). The format is cell-based. The settings on record: 72 hr incubation; read-out: IC50 (nM, Ba/F3_EGFR_del19/T790M/C797S cell proliferation). Here is the method: (§1) The BaF3 cell proliferation assay was performed at Pharmaron (www.pharmaron.com, Beijing, China). The Ba/F3_WT and Ba/F3_Del19/T790M/C797S cell lines were maintained in 1640 medium containing 10% FBS, 1*PS and 1*Glutamax. Only cells with viability greater than 90% are used for assays. Dispense 30 μl of cell suspension at 700/well into 384 well microplate, add 30 nl compound solution into 384 cell plate by Echo, cells were incubated for 72 hr in 37° C./5% CO2 incubator, add 30 μl reagent CelltiterGlo assay kit (CTG, Promega) per well and shake plates, incubate the plate (avoiding light) at 37° C./5% CO2 for 30 min. and read the luminescence by Envision. The luminescence values were converted to % Inhibition. Calculate IC50 by fitting % inhibition values and log of compound concentrations to nonlinear regression (dose response−variable slope) with Graphpad 5.0.
Ba/F3_EGFR_del19/T790M/C797S cell, sequence (P00533 with tags, fused parts or gaps DEL746-750/T790M/C797S, form open): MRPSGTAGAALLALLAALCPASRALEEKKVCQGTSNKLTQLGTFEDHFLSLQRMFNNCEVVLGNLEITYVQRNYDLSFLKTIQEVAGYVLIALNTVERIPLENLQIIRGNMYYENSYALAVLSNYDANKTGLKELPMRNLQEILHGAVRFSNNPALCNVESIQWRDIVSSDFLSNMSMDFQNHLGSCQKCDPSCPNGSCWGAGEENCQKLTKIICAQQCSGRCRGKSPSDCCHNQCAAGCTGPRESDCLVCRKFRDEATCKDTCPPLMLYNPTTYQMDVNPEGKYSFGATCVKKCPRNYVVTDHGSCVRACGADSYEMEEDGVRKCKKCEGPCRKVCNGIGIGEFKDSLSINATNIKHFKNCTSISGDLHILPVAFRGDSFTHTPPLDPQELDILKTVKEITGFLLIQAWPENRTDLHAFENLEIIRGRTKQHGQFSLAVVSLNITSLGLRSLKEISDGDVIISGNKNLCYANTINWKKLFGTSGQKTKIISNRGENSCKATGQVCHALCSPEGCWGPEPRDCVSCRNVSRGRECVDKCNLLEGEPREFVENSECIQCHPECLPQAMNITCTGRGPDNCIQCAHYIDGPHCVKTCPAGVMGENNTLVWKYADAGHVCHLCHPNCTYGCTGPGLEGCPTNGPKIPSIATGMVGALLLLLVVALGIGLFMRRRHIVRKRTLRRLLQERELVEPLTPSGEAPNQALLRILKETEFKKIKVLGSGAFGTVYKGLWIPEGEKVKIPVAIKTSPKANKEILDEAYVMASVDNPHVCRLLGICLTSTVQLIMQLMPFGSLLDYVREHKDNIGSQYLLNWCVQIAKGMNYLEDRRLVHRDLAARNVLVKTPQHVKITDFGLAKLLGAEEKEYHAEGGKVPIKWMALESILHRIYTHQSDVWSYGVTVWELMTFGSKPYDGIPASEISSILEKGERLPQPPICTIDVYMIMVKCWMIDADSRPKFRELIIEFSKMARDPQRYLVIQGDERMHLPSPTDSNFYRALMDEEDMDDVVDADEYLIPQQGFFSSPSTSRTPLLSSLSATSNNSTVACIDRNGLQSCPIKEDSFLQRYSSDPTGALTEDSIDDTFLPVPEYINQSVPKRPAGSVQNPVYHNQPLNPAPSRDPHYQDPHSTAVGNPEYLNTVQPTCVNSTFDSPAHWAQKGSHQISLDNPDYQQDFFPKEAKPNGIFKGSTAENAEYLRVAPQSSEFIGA
(§2) Y=Bottom+(Top−Bottom)/(1+10^((Log IC50−X)*HillSlope))
(§3) X: log of inhibitor concentration; Y: % Inhibition.

The next assay relates to Ba/F3_WT cell. The assay is described as above. The class given is cell-based. The settings on record: Mus musculus, 72 hr incubation. Here is the method: as §1, §2, §3

T1 sequence (P00533 25-1210 T790M/C797S/L858R): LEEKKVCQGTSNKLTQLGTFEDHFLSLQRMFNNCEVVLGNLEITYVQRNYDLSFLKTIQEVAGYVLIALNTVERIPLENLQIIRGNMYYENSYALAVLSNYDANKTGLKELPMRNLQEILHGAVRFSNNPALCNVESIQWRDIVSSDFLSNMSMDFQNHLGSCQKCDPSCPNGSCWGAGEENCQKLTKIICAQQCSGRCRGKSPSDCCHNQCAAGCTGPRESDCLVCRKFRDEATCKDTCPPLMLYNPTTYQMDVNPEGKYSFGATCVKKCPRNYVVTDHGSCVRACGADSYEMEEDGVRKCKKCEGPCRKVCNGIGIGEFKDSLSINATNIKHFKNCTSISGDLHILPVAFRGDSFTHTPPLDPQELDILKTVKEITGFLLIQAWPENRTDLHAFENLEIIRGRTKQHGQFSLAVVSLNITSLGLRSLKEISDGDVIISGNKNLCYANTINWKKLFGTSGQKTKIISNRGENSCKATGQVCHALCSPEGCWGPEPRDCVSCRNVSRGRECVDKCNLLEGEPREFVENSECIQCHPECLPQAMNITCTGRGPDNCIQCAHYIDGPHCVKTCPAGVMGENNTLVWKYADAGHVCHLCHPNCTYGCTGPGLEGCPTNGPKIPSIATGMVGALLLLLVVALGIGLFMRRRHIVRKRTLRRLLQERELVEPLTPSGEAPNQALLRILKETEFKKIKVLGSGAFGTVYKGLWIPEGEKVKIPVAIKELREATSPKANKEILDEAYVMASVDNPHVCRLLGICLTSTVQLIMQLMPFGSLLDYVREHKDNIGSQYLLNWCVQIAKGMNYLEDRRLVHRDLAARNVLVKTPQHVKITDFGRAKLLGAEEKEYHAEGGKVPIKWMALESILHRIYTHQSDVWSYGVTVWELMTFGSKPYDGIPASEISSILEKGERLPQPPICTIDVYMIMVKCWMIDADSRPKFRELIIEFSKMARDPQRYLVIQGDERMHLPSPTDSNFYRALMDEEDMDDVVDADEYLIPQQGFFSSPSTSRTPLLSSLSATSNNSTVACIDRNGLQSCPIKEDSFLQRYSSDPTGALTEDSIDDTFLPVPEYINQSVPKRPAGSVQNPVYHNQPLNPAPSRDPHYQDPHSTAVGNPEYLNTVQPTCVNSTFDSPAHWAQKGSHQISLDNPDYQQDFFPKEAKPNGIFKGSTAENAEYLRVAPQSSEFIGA

On to `COc1cc(N2CCN(C)CC2)c2cc1Nc1ncc(Cl)c(n1)Nc1ccc(cc1N(C)S(C)(=O)=O)OCCCC2` [Compound A4, N-(3^5-chloro-1^6-methoxy-1^4-(4-methylpiperazin-1-yl)-6-oxa-2,4-diaza-3(2,4)-pyrimidina-1(1,3),5(1,4)-dibenzenacyclodecaphane-5^2-yl)-N-methylmethanesulfonamide], for which the values for the IC50 at EGFR_L858R/T790M/C797S and in the assay on Ba/F3_WT cell were 46.5 nM and 3320 nM, respectively. The GI50 in assay [1] is 252 nM.

For the compound `COc1cc(N2CCN(C)CC2)c2cc1Nc1ncc(Cl)c(n1)Nc1ccc(cc1N(C)S(C)(=O)=O)OCCCCCC2` [Compound A14, N-(3^5-chloro-1^6-methoxy-1^4-(4-methylpiperazin-1-yl)-6-oxa-2,4-diaza-3(2,4)-pyrimidina-1(1,3),5(1,4)-dibenzenacyclododecaphane-5^2-yl)-N-methylmethanesulfonamide], the IC50 at EGFR_L858R/T790M/C797S was found to be 16.7 nM; with Ba/F3_WT cell, 2960 nM. Besides, the GI50 in assay [1] amounted to 897 nM.

Consider `CCN(c1cc2ccc1Nc1nc(ncc1Cl)Nc1cc(c(N3CCN(C)CC3)cc1OC)CCCCCCO2)S(C)(=O)=O` [Compound A23, N-(3^5-chloro-1^6-methoxy-1^4-(4-methylpiperazin-1-yl)-6-oxa-2,4-diaza-3(2,4)-pyrimidina-1(1,3),5(1,4)-dibenzenacyclododecaphane-5^2-yl)-N-ethylmethanesulfonamide], for which the IC50 on EGFR_L858R/T790M/C797S was determined as 2.6 nM; with Ba/F3_WT cell, 2660 nM. In addition, the GI50 in assay [1] turned out to be 157 nM.

On to `CCS(=O)(=O)N(C)c1cc2ccc1Nc1nc(ncc1Cl)Nc1cc(c(N3CCN(C)CC3)cc1OC)CCCCCO2` [Compound A8, N-(3^5-chloro-1^6-methoxy-1^4-(4-methylpiperazin-1-yl)-6-oxa-2,4-diaza-3(2,4)-pyrimidina-1(1,3),5(1,4)-dibenzenacycloundecaphane-5^2-yl)-N-methylethanesulfonamide], for which the results for the 50% inhibitory concentration (IC50) on EGFR_L858R/T790M/C797S and with Ba/F3_WT cell were 2.7 nM and 3430 nM, respectively. Further, in assay [1], the GI50 stood at 538 nM.

`COc1cc(N2CCN(C(C)=O)CC2)c2cc1Nc1ncc(Cl)c(n1)Nc1ccc(cc1N(C)S(C)(=O)=O)OCCCCC2` [Compound A31, N-(1^4-(4-acetylpiperazin-1-yl)-3^5-chloro-1^6-methoxy-6-oxa-2,4-diaza-3(2,4)-pyrimidina-1(1,3),5(1,4)-dibenzenacycloundecaphane-5^2-yl)-N-methylmethanesulfonamide]: the IC50 at EGFR_L858R/T790M/C797S was 12.7 nM; in the assay with Ba/F3_WT cell, over 10000 nM. Further, the GI50 in assay [1] stood at 154 nM.

In the case of `COc1cc(N2CCN(C)CC2)c2cc1Nc1ncc(Cl)c(n1)Nc1ccc(cc1N(C)S(C)(=O)=O)OCCCCC2` [Compound A3, N-(3^5-chloro-1^6-methoxy-1^4-(4-methylpiperazin-1-yl)-6-oxa-2,4-diaza-3(2,4)-pyrimidina-1(1,3),5(1,4)-dibenzenacycloundecaphane-5^2-yl)-N-methylmethanesulfonamide], the IC50 on EGFR_L858R/T790M/C797S came out at 9.86 nM; with Ba/F3_WT cell, 1180 nM. For the same compound, the GI50 in assay [1] is 135 nM.

On to `COc1cc(N2CCC(N3CCOCC3)CC2)c2cc1Nc1ncc(Cl)c(n1)Nc1ccc(cc1N(C)S(C)(=O)=O)OCCCCC2` [Compound A32, N-(3^5-chloro-1^6-methoxy-1^4-(4-morpholinopiperidin-1-yl)-6-oxa-2,4-diaza-3(2,4)-pyrimidina-1(1,3),5(1,4)-dibenzenacycloundecaphane-5^2-yl)-N-methylmethanesulfonamide], for which the IC50 on EGFR_L858R/T790M/C797S worked out at 0.6 nM; in the assay on Ba/F3_WT cell, 4840 nM. Besides, in assay [1], the GI50 is 106 nM.

For `COc1cc(N2CCN(C3CCN(C)CC3)CC2)c2cc1Nc1ncc(Cl)c(n1)Nc1ccc(cc1N(C)S(C)(=O)=O)OCCCCC2` [Compound A20, N-(3^5-chloro-1^6-methoxy-1^4-(4-(1-methylpiperidin-4-yl)piperazin-1-yl)-6-oxa-2,4-diaza-3(2,4)-pyrimidina-1(1,3),5(1,4)-dibenzenacycloundecaphane-5^2-yl)-N-methylmethanesulfonamide], the IC50 is 2.6 nM on EGFR_L858R/T790M/C797S and 1450 nM in the assay on Ba/F3_WT cell. In addition, the GI50 in assay [1] stood at 89 nM.

Take `COc1cc(N2CCC(N3CCN(C)CC3)CC2)c2cc1Nc1ncc(Br)c(n1)Nc1ccc(cc1P(C)(C)=O)OCCCCCC2` [Compound A34, (3^5-bromo-1^6-methoxy-1^4-(4-(4-methylpiperazin-1-yl)piperidin-1-yl)-6-oxa-2,4-diaza-3(2,4)-pyrimidina-1(1,3),5(1,4)-dibenzenacyclododecaphane-5^2-yl)dimethylphosphine oxide]: the concentration for half-maximal inhibition (IC50) on EGFR_L858R/T790M/C797S is 2 nM; with Ba/F3_WT cell, 3820 nM. Further, the GI50 in assay [1] turned out to be 142 nM.

For `CCN(c1cc2ccc1Nc1nc(ncc1Cl)Nc1cc(c(N3CCN(C)CC3)cc1OC)CCCCCO2)S(C)(=O)=O` [Compound A10, N-(3^5-chloro-1^6-methoxy-1^4-(4-methylpiperazin-1-yl)-6-oxa-2,4-diaza-3(2,4)-pyrimidina-1(1,3),5(1,4)-dibenzenacycloundecaphane-5^2-yl)-N-ethylmethanesulfonamide], the IC50 on EGFR_L858R/T790M/C797S was 0.5 nM; in the assay on Ba/F3_WT cell it was 1840 nM. In addition, the GI50 in assay [1] worked out at 125 nM.

Take `COc1cc(N2CCN(C)CC2)c2cc1Nc1ncc(C(F)(F)F)c(n1)Nc1ccc(cc1N(C)S(C)(=O)=O)OCCCCC2` [Compound A13, N-(1^6-methoxy-1^4-(4-methylpiperazin-1-yl)-3^5-(trifluoromethyl)-6-oxa-2,4-diaza-3(2,4)-pyrimidina-1(1,3),5(1,4)-dibenzenacycloundecaphane-5^2-yl)-N-methylmethanesulfonamide]: the values for the IC50 on EGFR_L858R/T790M/C797S and in the assay on Ba/F3_WT cell were 2 nM and 3770 nM, respectively. For the same compound, the GI50 in assay [1] came out at 108 nM.

Turning to `COc1cc(N2C[C@H]3CN(C)C[C@H]3C2)c2cc1Nc1ncc(Cl)c(n1)Nc1ccc(cc1N(C)S(C)(=O)=O)OCCCCC2` [Compound A28, N-(3^5-chloro-1^6-methoxy-1^4-((cis-3,6)-5-methylhexahydropyrrolo[3,4-c]pyrrol-2(1H)-yl)-6-oxa-2,4-diaza-3(2,4)-pyrimidina-1(1,3),5(1,4)-dibenzenacycloundecaphane-5^2-yl)-N-methylmethanesulfonamide], the figures for the concentration for half-maximal inhibition (IC50) at EGFR_L858R/T790M/C797S and in the assay on Ba/F3_WT cell were 1.4 nM and 2970 nM, respectively. For the same compound, the GI50 in assay [1] stood at 194 nM.

`COc1cc(N2CCC(N3CCN(C)CC3)CC2)c2cc1Nc1ncc(Cl)c(n1)Nc1ccc(cc1N(C)S(C)(=O)=O)OCCCCCC2` [Compound A15, N-(3^5-chloro-1^6-methoxy-1^4-(4-(4-methylpiperazin-1-yl)piperidin-1-yl)-6-oxa-2,4-diaza-3(2,4)-pyrimidina-1(1,3),5(1,4)-dibenzenacyclododecaphane-5^2-yl)-N-methylmethanesulfonamide]: the IC50 on EGFR_L858R/T790M/C797S amounted to 0.5 nM; in the assay on Ba/F3_WT cell, 2660 nM. For the same compound, in assay [1], the GI50 is 195 nM.

As to `COc1cc(N2CCN(C)CC2)c2cc1Nc1ncc(Br)c(n1)Nc1ccc(cc1P(C)(C)=O)OCCCC2` [Compound A35, (3^5-bromo-1^6-methoxy-1^4-(4-methylpiperazin-1-yl)-6-oxa-2,4-diaza-3(2,4)-pyrimidina-1(1,3),5(1,4)-dibenzenacyclodecaphane-5^2-yl)dimethylphosphine oxide], the IC50 at EGFR_L858R/T790M/C797S came out at 289 nM; with Ba/F3_WT cell it was 2240 nM. Also, the GI50 in assay [1] was 1050 nM.

As for `COc1cc(N2CCN(C)CC2)c2cc1Nc1ncc(Cl)c(n1)Nc1ccc(cc1P(C)(C)=O)OCCCCC2` [Compound A18, (3^5-chloro-1^6-methoxy-1^4-(4-methylpiperazin-1-yl)-6-oxa-2,4-diaza-3(2,4)-pyrimidina-1(1,3),5(1,4)-dibenzenacycloundecaphane-5^2-yl)dimethylphosphine oxide], the IC50 is 145 nM on EGFR_L858R/T790M/C797S and over 10000 nM in the assay with Ba/F3_WT cell. Moreover, in assay [1], the GI50 was determined as 520 nM.

`COc1cc(N2CCC(N3CCN(C)CC3)CC2)c2cc1Nc1ncc(Cl)c(n1)Nc1ccc(cc1S(=O)(=O)C(C)C)OCCCCC2` [Compound A26, 3^5-chloro-5^2-(isopropylsulfonyl)-16-methoxy-1^4-(4-(4-methylpiperazin-1-yl)piperidin-1-yl)-6-oxa-2,4-diaza-3(2,4)-pyrimidina-1(1,3),5(1,4)-dibenzenacycloundecaphane]: the results for the IC50 on EGFR_L858R/T790M/C797S and with Ba/F3_WT cell were 250 nM and 1790 nM, respectively. For the same compound, in assay [1], the GI50 was found to be 1110 nM.

The values are drawn from patent publication US20230159556A1, “NOVEL PROTEIN KINASE INHIBITORS” (TENOVA PHARMACEUTICALS INC., priority 2020, published 2023).
